Assay: xn = mol fraction of the nth substance listed
Settings: 101 kPa, Liquid; for viscosity: Falling or rolling sphere viscometry; for speed of sound: Sing-around technique in a fixed-path interferometer; for mass density: Vibrating tube method

CC12CCC(CC1)C(C)(C)O2 [1,3,3-trimethyl-2-oxabicyclo[2.2.2]octane] + CCCCCCCC
Settings	mass density, 278.15 K [kg/m3]	speed of sound, 278.15 K [m/s]	viscosity, 278.15 K [mPa·s]	viscosity, 298.15 K [mPa·s]
x1 = 0.1046	738.47	1263.8	0.77	0.6
x1 = 0.199	759.76	1270.8	0.87	0.66
x1 = 0.2987	782.16	1279.1	1	0.75
x1 = 0.4008	805.03	1288.5	1.17	0.86
x1 = 0.4955	826.13	1297.8	1.36	0.98
x1 = 0.5939	847.98	1308.4	1.62	1.14
x1 = 0.6971	870.82	1320.1	1.99	1.37
x1 = 0.7985	893.16	1332.5	2.49	1.65
x1 = 0.8939	914.06	1344.9	3.14	2.02
x1 = 1	937.25	1359.6	4.21	2.6
